Data taken from US11266707B2, “Nutraceuticals for the prevention, inhibition, and treatment of SARS-CoV-2 and associated COVID-19” (priority 2020, dated 2022).
Like-named read-outs stand apart in the source and are kept apart here.

Columns and labels:
[1] = tested on: LPS-challenged macrophages; settings: pre-incubated 6 h with 0 to 50 μM, then LPS 24 h; cited from earlier work
[2] = tested on: LPS-induced ARDS; settings: cited from earlier work
[3] = tested on: primary peritoneal macrophages; settings: cited from earlier work
[4] = tested on: sepsis induction with live Escherichia coli; settings: cited from earlier work; for concentration of IL-1a: controls 1187.0±278.64, P<0.05
[5] = tested on: lipopolysaccharide-induced inflammatory reactions; settings: cited from earlier work
[6] = tested on: LPS-induced ARDS; settings: cited from earlier work; remark: listed apart in the source
[7] = cited from earlier work
[8] = cited from earlier work; remark: listed apart in the source
[9] = 10 mg/kg intravenously then 10 mg/kg/h infusion; cited from earlier work
[10] = 10 mg/kg intraperitoneally at 1 and 6 h after CL2P and every 12 h; 18 h; cited from earlier work
[11] = tested on: lipopolysaccharide-activated macrophages; settings: cited from earlier work
[12] = tested on: macrophage foam cells; settings: pretreatment; cited from earlier work
[13] = 10 mg/kg intraperitoneally; 72 h after CL2P; cited from earlier work
[14] = tested on: human umbilical vein VECs (HUVECs); settings: cited from earlier work
[15] = animal studies; cited from earlier work
[16] = tested on: endothelium of atherosclerotic plaque; settings: apoE(−/−) mice, injection; cited from earlier work
[17] = tested on: interleukin-I, interleukin-6, interleukin-8, TNF-alpha; settings: cited from earlier work
[18] = tested on: NK cell; test: Pterostilbene given as nanostilbene to cancer patients: NK cell activity and interferon gamma; format: in vivo, human; settings: administered in the form of nanostilbene in cancer patients
[19] = 50 mg/kg, LPS 5 mg/kg 3 days later
[20] = lung, serum, and bronchoalveolar lavage fluid

For `C[S+]([O-])CCCCN=C=S` (stereo not shown) [sulforaphane, 1-isothiocyanato-4-(methylsulfinyl)-butane], the “expression of NO and cytokines” value [1] is given as “able to prevent”, the “serum levels of interleukin-6 (IL-6)” value ([2]; 50 mg/kg, ELISA) is given as “significantly decreased” and the “serum levels of tumor necrosis factor-a (TNF-a)” value ([2]; 50 mg/kg, ELISA) is given as “significantly decreased”. For the same compound, the “lactate dehydrogenase (LDH) activity” value [2, 19] was “significantly decreased”, the “wet-to-dry ratio of the lungs” value [2, 19] was “significantly decreased” and the “inducible nitric oxide synthase (iNOS) activity” value ([2]; 50 mg/kg) was “significantly inhibited”. The “prostaglandin E2 (PGE2) production” value ([2]; 50 mg/kg) was “significantly inhibited”, the “Nrf2/antioxidant response element (ARE) pathway” value ([2]; pre-treatment) was “activated” and the “cyclooxygenase-2 (COX-2) protein expression” value ([2]; western blot) was “significantly inhibited”. For the same compound, the “matrix metalloproteinase-9 (MMP-9) protein expression” value ([2]; western blot) was “significantly inhibited”, the HO-1 expression ([3]; LPS-stimulated Nrf2 (+/+) primary peritoneal macrophages) was “significantly augmented” and the “LPS-stimulated mRNA expression, protein expression and production of TNF-alpha, IL-1beta, COX-2 and iNOS” value ([3]; Nrf2 (+/+) primary peritoneal macrophages, pretreatment) was “potently inhibited”. The anti-inflammatory effect ([3]; Nrf2 (−/−) primary peritoneal macrophages) was “attenuated”.
In the case of `CC1=CC(=O)C(C(C)C)=CC1=O` [thymoquinone], the “concentration of IL-1a” value ([4]; 0.75 mg/kg dose) is listed as 310.8 ± 70.93 pg/mL, the IL-10 levels ([4]; 0.75 mg/kg, controls 5505.2±333.96, P<0.01) is listed as 2885.0 ± 553.98 pg/mL and the “concentration of IL-1a” value ([4]; 1 mg/kg group) is listed as 428.3 ± 71.32 pg/mL. The “levels of IL-2” value ([4]; P value 0.0851) was “relatively lower”, the “levels of TNF-a” value ([4]; P value 0.1817) was “relatively lower” and the reduced mortality ([4]; mice, sepsis models) was 80-90%. The “renal and hepatic biomarker profiles” value ([4]; mice, sepsis models) was “improved”, the lipopolysaccharide-induced inflammatory reactions [5] was “suppressed effectively” and the “concentration of nitric oxide” value ([5]; marker of inflammation) was “reduced significantly”.
For Epigallocatechin-3-Gallate [EGCG], the “LPS-induced ARDS” value ([6]; 10 mg/kg ip 1 h before LPS 10 mg/kg ip) is given as “attenuated”, the “changes in blood gases” value ([6]; 10 mg/kg ip) is given as “decreased” and the histological lesions ([6]; 10 mg/kg ip) is given as “reduced”. The “myeloperoxidase (MPO) activity” value ([6]; 10 mg/kg ip) was “reduced”, the “expression of IKB-a” value ([6]; lung tissue) was “increased” and the “expression of TLR-4, MyD88, TRIP, and p-p65” value ([6]; lung tissue) was “alleviated”. The “expression of p65” value ([6]; lung tissue) was “no influence”, the “expression of IL-6” value [6, 20] was “significantly decreased” and the “expression of interleukin (IL)-1′” value [6, 20] was “significantly decreased”. The “expression of tumor necrosis factor (TNF)-a” value [6, 20] was “significantly decreased”, the colonic tissue erosion ([7]; 50 and 100 mg/kg/day) was “attenuation” and the “HIF-1a and STAT3 protein expression in the colon” value ([7]; mouse, in vivo) was “decreasing”. The “plasma levels of IL-10” value ([7]; mouse, in vivo) was “increasing”, the “plasma levels of TGF-1” value ([7]; mouse, in vivo) was “increasing” and the “release of IL-6” value ([7]; plasma) was “reduce”. The “release of IL-17” value ([7]; plasma) was “reduce”, the lethal sepsis ([8]; first dose given 24 hours after cecal ligation and puncture) was “rescued” and the lethal endotoxemia ([8]; intraperitoneal administration) was “protected”. For the same compound, the “systemic accumulation of HMGB1, IL-6 and KC” value ([8]; mouse, in vivo) was “attenuation”, the myeloperoxidase activity [9] was “reduced” and the myocardial damage [9] was “reduced”. For the same compound, the “plasma IL-6 levels” value [9] was “decreased”, the “plasma creatine phosphokinase levels” value [9] was “decreased” and the “hypotension (mean arterial blood pressure)” value [10] was “significantly improved”. For the same compound, the NO production ([11]; cells cotreated with EGCG and LPS) was “Inhibition”, the “disappearance of inhibitor kappaB from cytosolic fraction” value [11] was “blocked” and the “activation of nuclear factor-kappaB” value ([11]; electrophoretic mobility shift assay) was “blocked”. The “TNF-a-induced downregulation of ABCA1 and decrease in cholesterol efflux to apoA1” value [12] was “attenuated” and the survival [13] was “significantly improved”.
In the case of “trans-3,5-dimethoxy-4-hydroxystilbene [pterostilbene]”, the “oxLDL-induced cell shrinkage, chromatin condensation, nuclear fragmentation, and cell apoptosis” value ([14]; HUVECs, oxLDL 200 μg/ml) is listed as “protected against such injuries”, the “expression of lectin-like oxLDL receptor-I (LOX-1)” value ([14]; in vitro and in vivo) is listed as “inhibited” and the bioavailability [15] is listed as 80%. The “number of TUNEL-positive cells in the endothelium of atherosclerotic plaque” value [16] was “strongly decreased”, the “inflammatory cytokines associated with ARDS (interleukin-I, interleukin-6, interleukin-8, TNF-alpha)” value [17] was “inhibit inflammatory cytokines” and the NK cell activity [18] was “increased”. For the same compound, the interferon gamma production [18] was “increased”.
